# From patent US20250082625A1, “NOVEL THERAPY” (priority 2016, published 2025)
# “Also recorded” adds a separate entry of the source.
# How the values were obtained:
# NK1R = assay: Neuropeptide response in bladders of CY-17 infected Nlrp3^−/− mice treated with NK1R antagonist (immunohistochemistry, qRT-PCR); format: in vivo; settings: for Nk1r expression (qRT-PCR) / Ppt-1 expression (qRT-PCR): 1 mg/kg i.p.
# From the text: Mice were bred and housed in the specific pathogen-free MIG animal facilities (Lund, Sweden) with free access to food and water. Female C57BL/6 mice or Il1b^−/−, Nlrp3^−/−, Asc^−/− mice were used for experiments at 9-15 weeks of age.
# Tissues were embedded in O.C.T. compound (VWR) and 7-μm-thick fresh cryosections were mounted on positively charged microscope slides (Superfrost/Plus; Thermo Fisher Scientific) Sections were permeabilized (0.25% Triton X-100, 5% FBS), blocked (5% FBS) and stained: rabbit anti-NK1R (1:50, SC-15323, SantaCruz), rabbit anti-substance p (1:100, ORB11399, Biorbyt), rabbit anti-orexin receptor 2 (1:300, AB104701, Abcam), rabbit anti-GALR2 (1:50, AB136264, Abcam) or rabbit anti-TAS2R43 (1:100, AB65513, Abcam). Antibodies were appropriately labeled using goat anti-rabbit secondary antibodies conjugated to Alexa 488 (1:200 in 0.025% Triton X-100, 5% FBS) for 1 h in RT before nuclear counterstaining using Draq5 (1:1000, Abcam). Sections were imaged by laser scanning confocal microscopy (MSM510 META confocal microscope, Carl Zeiss) or by fluorescence microscopy (AX60, Olympus Optical).
# Complementary DNA was reverse-transcribed from 0.2-1 μg of mice total RNA using SuperScript™ III First-Strand Synthesis System for RT-PCR (Invitrogen), and quantified in real time using primer pairs against Mus musculus Nk1r, Ppt-1^37 and Galr2 and QuantiTect® SYBR® Green PCR kits (Qiagen) on a Rotor Gene Q (Qiagen).
# qRT-PCR reactions were run in technical duplicates and gene expression was analyzed based on ΔΔCT comparison to Mus musculus GAPDH.
# The severity of acute cystitis after 24 hours or seven days was examined and neuropeptide expression and disease severity quantified by immunohistochemistry and qRT-PCR of whole bladder RNA extracts, using primers specific for NK1R, Ppt-1 or Galr2 as described above.
# [1] = test system: Nlrp3^−/− mice infected with CY-17; assay: Disease severity / bladder pathology in CY-17 infected Nlrp3^−/− mice (murine acute cystitis model); format: in vivo
# Method: To inhibit the NK1R dependent response to infection, we used the NK1R antagonist SR 140333. FIG. 6a Experimental scheme of NK1R antagonist (SR140333) treatment. Susceptible Nlrp3^−/− mice were infected with CY-17 for 24 hours, and the neuropeptide response and disease severity was compared between untreated infected mice, treated and infected mice and sham treated uninfected mice. The mice were either pre-treated with SR140333 i.p. for 30 minutes prior to infection or treated i.p. 1 hour after infection. Sham treated mice received SR140333 i.p. and PBS intravesically. n=10 mice in each treatment group, n=6 in the sham treated, uninfected group. N=2 in the uninfected control group. Means+SEMs of 2 experiments, total number of mice=39. FIG. 6b Protection against gross bladder pathology in SR140333 treated mice compared untreated, infected mice, FIG. 6c Inhibition of NK1R staining in treated mice compared to infected mice not receiving SR140333. Sections were obtained from 4 mice per condition. FIG. 6d Inhibition of Nk1r expression, detected by qRT-PCR analysis of treated mice compared to untreated, infected mice. Sections were obtained from 5 mice per treatment group. FIG. 6e Attenuated SP staining in SR140333 treated infected mice compared to untreated mice (n=4 mice per condition). […] FIG. 6h Galr2 gene expression is not altered after treatment with SR140333. n=5 mice per treatment group (*=p<0.05, **=p<0.01, Mann-Whitney test). FIG. 6i Protection from bladder tissue pathology shown in H&E stained and neutrophil and bacterial immunostained sections from treated versus control mice. […] (n=10 mice per treatment group, n=4 mice per sham group, means+SEMs, *P<0.05, **P<0.01, ***P<0.001, one way Anova).
# Susceptible Nlrp3^−/− mice were treated with SR140333 intra-peritoneally (1 mg/kg), one hour before infection (pretreatment) or 30 minutes after infection (post-treatment) with CY-17 (FIG. 6a). The severity of acute cystitis after 24 hours or seven days was examined and neuropeptide expression and disease severity quantified by immunohistochemistry and qRT-PCR of whole bladder RNA extracts, using primers specific for NK1R, Ppt-1 or Galr2 as described above.
# Bladder tissue was more intact and the inflammatory cell infiltrate was reduced in tissues.
# [2] = Nlrp3^−/− mice, CY-17 infection, SR140333 i.p. 1 mg/kg, vs untreated infected mice, 1 mg/kg
structure (smiles),measurement,setting,value
"CC(C)Oc1cccc(CC(=O)N2CCC[C@](CC[N+]34CCC(c5ccccc5)(CC3)CC4)(c3ccc(Cl)c(Cl)c3)C2)c1.[Cl-] [SR140333, 1-[2-[(3S)-3-(3,4-Dichlorophenyl)-1-[2-[3-(1-methylethoxy)phenyl]acetyl]-3-piperidinyl]ethyl]-4-phenyl-1-azoniabicyclo[2.2.2]octane chloride]",mucosal NK1R response to infection (NK1R staining),NK1R; [2],reduced; also recorded: Inhibition
same,mucosal SP response to infection (SP staining),NK1R; [2],reduced; also recorded: Attenuated
same,Galr2 expression (qRT-PCR),"NK1R; either treatment (prophylactic or post-infection), p=0.19 and p=0.63",no significant effect; also recorded: not altered
same,GALR2 staining,"NK1R; infected mice, n=4 mice per condition",does not effect
same,Nk1r expression (qRT-PCR),"NK1R; post-infection treatment, p<0.01",reduced
same,Ppt-1 expression (qRT-PCR),"NK1R; post-infection treatment, p<0.01, 1 mg/kg",affected; also recorded: Inhibition
same,Nk1r expression (qRT-PCR),"NK1R; prophylactic treatment (pretreatment), p<0.05",reduced
same,Ppt-1 expression (qRT-PCR),"NK1R; prophylaxis (pretreatment), p=0.06",less efficient
same,"gross bladder pathology (edema, hyperemia and bladder enlargement)","[1]; 24 hours post infection, vs infected mice without therapy",reduction; also recorded: Protection
same,Histology score,[1]; after treatment with SR140333,reduced pathology
same,inflammatory cell infiltrate in tissues,[1]; treated Nlrp3^−/− mice vs infected mice without therapy,reduced
same,"bladder tissue pathology / tissue integrity (H&E, neutrophil and bacterial immunostained sections)",[1]; treated versus control mice,more intact; also recorded: Protection
